Target: T1, AFF4-CCNT1 interaction (GST-CCNT1 AA 1-300 and biotin-AFF4 peptide AA 32-67) (Homo sapiens, UniProt O60563)
T1 construct: Recombinant GST-CCNT1 (1-300), which was purified by Glutathione Superflow Agarose from Rosetta cells; VCPBIO (peptide synthesis) Addgene P#432; host or cells: Rosetta cells
Experiment: AlphaLISA assay of the AFF4-CCNT1 interaction (Alpha Screen)
Assay type: binding
Excerpt: FIG. 1. Peptidomimetic identification of disruptors of the AFF4-CCNT1 interaction within the Super Elongation Complex. (A) Schematic for the identification of small molecule inhibitors of the AFF4-CCNT1 interaction using in silico high-throughput screening. Compounds from the ZINC database were docked with the AFF4-CCNT1 structure (4IMY) using a three-tier glide-docking algorithm, which led to 40 candidates. Residues forming the deep binding pocket of CCNT1 are labeled orange and residues of the AFF4 peptide are labeled red. (B) Validation screening identified KL-1 as a potential SEC disruptor using AlphaLISA screening. GST-CCNT1 (AA 1-300) and biotin-labeled AFF4 peptide (AA 32-67) were used to measure the AFF4-CCNT1 interaction with the AlphaLISA assay. (C) Similarity search for KL-1-like molecules identified KL-2. The peptidomimetic potential of KL-1 and KL-2 can be seen by overlaying them with the AFF4 peptide LFAEP structure. (D) Dose-dependent inhibition of KL-1 and KL-2 on AFF4-CCNT1 interaction. The Ki constants of both compounds were measured with the AlphaLISA assays. (E) Treatment of HEK293T cells with KL-1 and KL-2 results in reduced protein levels of SEC components AFF1 and AFF4 but not CDK9 or CCNT1. HEK293T cells were treated with 20 μM of SEC inhibitors KL-1 or KL-2 for 6 hr. 5 μl, 10 and 20 μl cell lysates were loaded and the protein levels of AFF1, AFF4, CCNT1, CDK9 and Tubulin (load control) were determined by western blotting.
FIG. 8, related to FIG. 1. Peptidomimetic identification of disruptors of the AFF4-CCNT1 interaction within the Super Elongation Complex. (A) Schematic of AlphaLISA assay of the AFF4-CCNT1 interaction. Anti-GST AlphaLISA acceptor beads and AlphaScreen streptavidin donor beads (Perkin Elmer) were used to detect the interaction of GST-CCNT1 (AA1-300) and biotin-AFF4 (AA32-67). (B-C) Optimization of the AlphaLISA assay with various biotin-AFF4 peptide and GST-CCNT1 concentrations. No CCNT1 (B) and mutant AFF4 (C) were used as negative controls. Data are represented as Mean+/−SD. (D) Scheme for chemical synthesis of SEC inhibitors KL-1 and KL-2. Reagents and conditions: a. LDA, THF, −78° C., 15 min., then diethyl oxalate, −78° C. to room temperature. b. NaOH, THF/H2O, room temperature, 15 min. c. EEDQ, 5-chloro-2-methylaniline, THF, room temperature, 24 hr. […] 293T cells were treated with 20 μM of KL-1 or KL-2 for 6 hr, and the protein levels of BRD2, BRD4, Pol II (RPB1), SPT5, MED26, MYC, HSP90 (load control) and Tubulin (load control) were measured by western blotting. (F) Treatment of HCT-116 cells with KL-1 and KL-2 reduced protein levels of SEC components AFF1 and AFF4 but not CDK9 or CCNT1. HCT-116 cells were treated with 20 μM of KL-1 or KL-2 for 6 hr, and the protein levels of AFF1, AFF4, CCNT1, CDK9 and Tubulin (load control) were determined by western blotting. (G-H) Treating cells with KL-1 and KL-2 results in reduced levels of AFF 1 and AFF4. FLAG-AFF1 (G) and FLAG-AFF4 (H) were expressed under the Tet-inducible promoter in HEK293T cells. Cells were treated with 20 μM of the indicated inhibitors for 6 hr for western blotting. […] RNA-seq was performed in HEK293T cells treated for 12 hr with 20 μM of the indicated inhibitors. The log2CPM (counts per million) of the SEC subunits were calculated with HTseq. KL-1 and KL-2 had no significant effects on CCNT1, CDK9 and AFF1 expression, but modest increases in the mRNA levels of AFF4 and ELL2 were observed (n=3). Unpaired two-way ANOVA was used for the statistical testes. **,p<0.05, ***,p<0.001.
To test if candidate compounds can disrupt the AFF4-CCNT1 interaction in vitro, we established and optimized a bead-based AlphaLISA assay with recombinant CCNT1 (1-300) protein and synthesized Biotin-AFF4 peptides (AA 32-67) (FIGS. 8A, 8B and 8C).
AlphaLISA Assay. The interaction of CCNT1-AFF4 was measured by Perkin Elmer's bead-based AlphaLISA assays. […]

T1 sequence (O60563 1-300): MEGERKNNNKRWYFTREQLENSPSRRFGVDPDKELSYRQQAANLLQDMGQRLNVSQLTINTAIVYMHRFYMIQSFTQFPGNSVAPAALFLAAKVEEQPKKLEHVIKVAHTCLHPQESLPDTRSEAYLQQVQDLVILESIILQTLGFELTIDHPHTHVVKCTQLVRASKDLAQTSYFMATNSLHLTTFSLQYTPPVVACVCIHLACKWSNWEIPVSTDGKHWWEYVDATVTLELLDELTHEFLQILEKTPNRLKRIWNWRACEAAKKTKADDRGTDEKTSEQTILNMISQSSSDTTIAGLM

COc1cccc(C(=O)CC(=O)C(=O)Nc2cc(Cl)ccc2C)c1 [KL-1, N-(5-chloro-2-methylphenyl)-4-oxo-4-(3-methoxyphenyl)-2-oxobutanamide]
Ki (AlphaLISA, IC50 converted to Ki with the Cheng and Prusoff equation, read-out: Ki, inhibition of the AFF4-CCNT1 interaction): 3.48 µM | disruption of the AFF4-CCNT1 interaction (tested at 20 μM): could inhibit the interaction of AFF4-CCNT1
